# Assays:
# Format in all cases: in vivo, human
# [1] = test system: Yap1 mRNA; experiment: Yap1 mRNA levels in SNU449 xenograft tumors, alone and in combination with sorafenib (second Example 30); conditions: SNU449 xenograft mice, oligonucleotide 50 mg/kg, sorafenib 30 mg/kg orally, tumors collected day 119 post implantation, relative to PBS
# Experimental: Modified oligonucleotides described in the studies above were tested in a hepatocellular carcinoma SNU449 xenograft tumor model. In addition to testing the modified oligonucleotide by itself, combination therapy with sorafenib was also tested. A control oligonucleotide 792169, described herein above, was also tested.
# (§1) Five million SNU449 cells in 30% matrigel were implanted subcutaneously into the fatpads of female NOD.Cg-Prkdcscid II2rgtmlWjl/SzJ mice (from Jackson Laboratory) at 4-6 weeks of age. 43 days post implantation (when tumors had reached approximately 100 mm^3 in size), groups of eight mice each were administered with 50 mg/kg modified oligonucleotide daily for 10 days (loading dose), following which they were administered with 50 mg/kg modified oligonucleotide four times a week for one week, following which they were dosed with 50 mg/kg modified oligonucleotide thrice weekly until the end of the study. […] Animals were sacrificed, and tumors were collected on day 119 post implantation.
# Yap1 mRNA knockdown in tumors was measured by RT-qPCR as previously described using the Human Yap1 primer-probe set RTS4814. Yap1 mRNA levels were normalized to actin-beta content, as measured by primer probe set RTS5002. Results are presented in the tables below as percent control of the amount of Yap1 mRNA relative to PBS treated animals (% control).
# [2] = test system: SNU449 xenograft tumor; experiment: Tumor volume in SNU449 xenograft tumor model, alone and in combination with sorafenib (second Example 30); conditions: SNU449 xenograft, oligonucleotide 50 mg/kg, sorafenib 30 mg/kg orally
# Experimental: Modified oligonucleotides described in the studies above were tested in a hepatocellular carcinoma SNU449 xenograft tumor model. […] A control oligonucleotide 792169, described herein above, was also tested.
# as §1
# Tumor volumes were also measured at the indicated days in the table below.
# [3] = test system: ERK1/2; experiment: Measurement of ERK activation (pERK/ERK) in SNU449 xenograft model with sorafenib (second Example 30); conditions: SNU449 xenograft tumors, pERK/ERK relative to PBS control, oligonucleotide 50 mg/kg, sorafenib 30 mg/kg orally
# Experimental: Five million SNU449 cells in 30% matrigel were implanted subcutaneously into the fatpads of female NOD.Cg-Prkdcscid II2rgtmlWjl/SzJ mice (from Jackson Laboratory) at 4-6 weeks of age. 43 days post implantation (when tumors had reached approximately 100 mm^3 in size), groups of eight mice each were administered with 50 mg/kg modified oligonucleotide daily for 10 days (loading dose), following which they were administered with 50 mg/kg modified oligonucleotide four times a week for one week, following which they were dosed with 50 mg/kg modified oligonucleotide thrice weekly until the end of the study.
# Protein analysis was carried out using standard procedures. […] ERK protein levels were compared to internal control GAPDH. […] The secondary antibody used was donkey anti-rabbit NA934, GE Healthcare. pERK/ERK levels were calculated relative to PBS control to determine % activation of ERK1/2.
compound,measurement,setting,value
CNC(=O)c1cc(Oc2ccc(NC(=O)Nc3ccc(Cl)c(C(F)(F)F)c3)cc2)ccn1 [sorafenib],Yap1 mRNA levels in tumors,[1],103 % control
same,Average Tumor Volume,[2]; day 43 post tumor implantation,112 mm^3
same,Average Tumor Volume,[2]; day 46 post tumor implantation,145 mm^3
same,Average Tumor Volume,[2]; day 50 post tumor implantation,159 mm^3
same,Average Tumor Volume,[2]; day 53 post tumor implantation,173 mm^3
same,Average Tumor Volume,[2]; day 57 post tumor implantation,200 mm^3
same,Average Tumor Volume,[2]; day 67 post tumor implantation,277 mm^3
same,Average Tumor Volume,[2]; day 71 post tumor implantation,249 mm^3
same,Average Tumor Volume,[2]; day 75 post tumor implantation,283 mm^3
same,Average Tumor Volume,[2]; day 78 post tumor implantation,322 mm^3
same,Average Tumor Volume,[2]; day 81 post tumor implantation,391 mm^3
same,Average Tumor Volume,[2]; day 85 post tumor implantation,416 mm^3
same,Average Tumor Volume,[2]; day 88 post tumor implantation,451 mm^3
same,Average Tumor Volume,[2]; day 92 post tumor implantation,508 mm^3
same,Average Tumor Volume,[2]; day 94 post tumor implantation,581 mm^3
same,Average Tumor Volume,[2]; day 98 post tumor implantation,625 mm^3
same,Average Tumor Volume,[2]; day 101 post tumor implantation,685 mm^3
same,Average Tumor Volume,[2]; day 105 post tumor implantation,671 mm^3
same,Average Tumor Volume,[2]; day 108 post tumor implantation,663 mm^3
same,Average Tumor Volume,[2]; day 119 post tumor implantation,747 mm^3
same,% activation of ERK1/2,[3],142%
